In patent publication US20230142338A1, “THIOPHENYL DERIVATIVES USEFUL FOR MODULATING NUCLEIC ACID SPLICING” (REMIX THERAPEUTICS INC., priority 2020, published 2023):
Counter-ions that a name gives are not always drawn.

What was measured:
Type in all cases: cell-based
[1] = tested on: SMN2 CJ mRNA; assay: Gene panel canonical junction qPCR assay: SMN2; settings: Table 3, concentration having 50% response in CJ decrease, read-out: SMN2 IC50 (decrease in CJ mRNA levels)
Description: (§1) Compounds described herein were used to modulate RNA transcript abundance in cells. The expression of a target mRNA was measured by detecting the formation of an exon-exon junction in the canonical transcript (CJ). A compound mediated exon-inclusion event was detected by observing an increase in formation of a new junction with an alternative exon (AJ). Real-time qPCR assays were used to detect these splicing switches and interrogate the potency of various compounds towards different target genes. A high-throughput real time quantitative PCR (RT-qPCR) assay was developed to measure these two isoforms of the mRNA (CJ and AJ) for an exemplary gene, HTT, together with a control housekeeping gene, GAPDH or GUSB or PPIA, used for normalization. Briefly, the A673 or K562 cell line was treated with various compounds described herein (e.g., compounds of Formula (I)). After treatment, the levels of the HTT mRNA targets were determined from each sample of cell lysate by cDNA synthesis followed by qPCR.
(§2) The A673 cell line was cultured in DMEM with 10% FBS. Cells were diluted with full growth media and plated in a 96-well plate (15,000 cells in 100 ul media per well). The plate was incubated at 37° C. with 5% CO2 for 24 hours to allow cells to adhere. An 11-point 3-fold serial dilution of the compounds was made in DMSO then diluted in media in an intermediate plate. Compounds were transferred from the intermediate plate to the cell plate with the top dose at a final concentration of 10 uM in the well. Final DMSO concentration was kept at or below 0.25%. The cell plate was returned to the incubator at 37° C. with 5% CO2 for an additional 24 hours.
(§3) The K562 cell line was cultured in IMDM with 10% FBS. For K562, cells were diluted with full growth media and plated in either a 96-well plate (50,000 cells in 50 uL media per well) or a 384-well plate (8,000-40,000 cells in 45 uL media per well). An 11-point 3-fold serial dilution of the compounds were made in DMSO then diluted in media in an intermediate plate. Compound was transferred from the intermediate plate to the cell plate with the top dose at a final concentration of 10 uM in the well. Final DMSO concentration was kept at or below 0.25%. Final volume was 100 uL for 96-well plate and 50 uL for 384-well plate. The cell plate was then placed in an incubator at 37° C. with 5% CO2 for 24 hours.
(§4) The cells were then gently washed with 50 uL-100 uL cold PBS before proceeding to addition of lysis buffer. 30 uL-50 uL of room temperature lysis buffer with DNAse I (and optionally RNAsin) was added to each well. Cells were shaken/mixed thoroughly at room temperature for 5-10 minutes for lysis to take place and then 3 uL-5 uL of room temperature stop solution was added and wells were shaken/mixed again. After 2-5 minutes, the cell lysate plate was transferred to ice for RT-qPCR reaction setup. The lysates could also be frozen at −80° C. for later use.
(§5) In some cases, a direct lysis buffer was used. An appropriate volume of 3× lysis buffer (10 mM Tris, 150 mM NaCl, 1.5%-2.5% Igepal and 0.1-1 U/uL RNAsin, pH 7.4) was directly added to either K562 or A673 cells in media and mixed by pipetting 3 times. The plates were then incubated at room temperature with shaking/rocking for 20-50 minutes to allow for lysis to take place. After this time, the cell lysate plate was transferred to ice to set up for the RT-qPCR reactions. The lysates could also be frozen at −80° C. for later use.
(§6) To set up 10 uL RT-qPCR reactions, cell lysates were transferred to 384-well qPCR plates containing the master mix according to the table below. The plates were sealed, gently vortexed, and spun down before the run. The volumes were adjusted accordingly in some instances where the reaction was carried in 20 uL. The table below summarizes the components of the RT-qPCR reactions:
(§7) The RT-qPCR reaction was performed using a QuantStudio (ThermoFisher) under the following fast cycling conditions. […]

[2] = tested on: HTT AJ mRNA; assay: Splicing assay (RT-qPCR): increase in HTT alternative junction (AJ) mRNA; settings: A673 or K562 cells, 24 hours treatment; concentration having 50% response in AJ mRNA increase
Description: as §1, §2, §3, §4, §5, §6, §7

[3] = tested on: Target C CJ mRNA; assay: Gene panel canonical junction qPCR assay: Target C; settings: Table 3, concentration having 50% response in CJ decrease, read-out: Target C IC50 (decrease in CJ mRNA levels)
Description: as §1, §2, §3, §4, §5, §6, §7

[4] = tested on: HTT CJ mRNA; assay: Gene panel canonical junction qPCR assay: HTT; settings: Table 3, concentration having 50% response in CJ decrease, read-out: HTT IC50 (decrease in CJ mRNA levels)
Description: as §1, §2, §3, §4, §5, §6, §7

[5] = tested on: HTT CJ mRNA; assay: Splicing assay (RT-qPCR): decrease in HTT canonical junction (CJ) mRNA; settings: A673 or K562 cells, 24 hours treatment; concentration having 50% response in CJ mRNA decrease
Description: as §1, §2, §3, §4, §5, §6, §7

Structure (SMILES)	IC50 [1]	AC50 [2]	IC50 [3]	IC50 [4]	AC50 [5]
Cc1cn2cc(NC(=O)c3sc(N(C)C4CCN(C)CC4)cc3F)cc(F)c2n1 [Compound 150, 3-fluoro-N-[8-fluoro-2-methylimidazo[1,2-a]pyridin-6-yl]-5-[methyl(1-methylpiperidin-4-yl)amino]thiophene-2-carboxamide]	1000 to 10000 nM	> 10000 nM	1000 to 10000 nM	1000 to 10000 nM	1000 to 10000 nM
CC1CN(c2cc(F)c(C(=O)Nc3ccc4cn(C)nc4c3)s2)CCN1 (stereo not shown) [Compound 162, 3-fluoro-N-(2-methylindazol-6-yl)-5-(3-methylpiperazin-1-yl)thiophene-2-carboxamide]	> 10 nM	> 10000 nM	> 10 nM	> 10 nM	> 10000 nM
CC1CN(c2cc(F)c(C(=O)Nc3cc(F)c4cn(C)nc4c3)s2)CCN1 (stereo not shown) [Compound 163, 3-fluoro-N-(4-fluoro-2-methylindazol-6-yl)-5-(3-methylpiperazin-1-yl)thiophene-2-carboxamide]	> 10 nM	> 10000 nM	< 100 nM	> 10 nM	> 10000 nM
Cc1nc2c(F)cc(NC(=O)c3sc(N4CCNC(C)C4)cc3F)cc2o1 (stereo not shown) [Compound 164, 3-fluoro-N-(4-fluoro-2-methyl-1,3-benzoxazol-6-yl)-5-(3-methylpiperazin-1-yl)thiophene-2-carboxamide]	100 to 1000 nM	1000 to 10000 nM	100 to 1000 nM	1000 to 10000 nM	1000 to 10000 nM
Cc1nc2c(F)cc(NC(=O)c3sc(N4CCNC(C)C4)cc3F)cc2s1 (stereo not shown) [Compound 165, 3-fluoro-N-(4-fluoro-2-methyl-1,3-benzothiazol-6-yl)-5-(3-methylpiperazin-1-yl)thiophene-2-carboxamide]	1000 to 10000 nM	> 10000 nM	100 to 1000 nM	> 10 nM	> 10000 nM
Cc1cn2cc(NC(=O)c3sc(N4CCNC(C)C4)cc3F)c(C)cc2n1 (stereo not shown) [Compound 166, N-[2,7-dimethylimidazo[1,2-a]pyridin-6-yl]-3-fluoro-5-(3-methylpiperazin-1-yl)thiophene-2-carboxamide]	1000 to 10000 nM	> 10000 nM	> 10 nM	> 10 nM	> 10000 nM
Cc1cn2cc(NC(=O)c3sc(N4CCNC(C)C4)cc3F)ncc2n1 (stereo not shown) [Compound 167, 3-fluoro-N-[2-methylimidazo[1,2-a]pyrazin-6-yl]-5-(3-methylpiperazin-1-yl)thiophene-2-carboxamide]	100 to 1000 nM	> 10000 nM	> 10 nM	> 10 nM	> 10000 nM
Cc1cn2nc(NC(=O)c3sc(N4CCNC(C)C4)cc3F)nc2c(C)n1 (stereo not shown) [Compound 169, hydrochloride]	> 10 nM	> 10000 nM	> 10 nM	> 10 nM	> 10000 nM
Cc1cn2cc(NC(=O)c3sc(N4CCNC(C)C4)cc3F)cc(C)c2n1 (stereo not shown) [Compound 172, N-[2,8-dimethylimidazo[1,2-a]pyridin-6-yl]-3-fluoro-5-(3-methylpiperazin-1-yl)thiophene-2-carboxamide]	1000 to 10000 nM	> 10000 nM	> 10 nM	> 10 nM	> 10000 nM
COc1cc(C2CCNCC2)sc1C(=O)Nc1cc(F)c2nc(C)cn2c1 [Compound 173, N-[8-fluoro-2-methylimidazo [1,2-a]pyridin-6-yl]-3-methoxy-5-(piperidin-4-yl)thiophene-2-carboxamide]	> 10 nM	> 10000 nM	> 10 nM	> 10 nM	> 10000 nM
Cc1cn2cc(NC(=O)c3ccc(C4CCNCC4)s3)cc(F)c2n1 [Compound 174, N-[8-fluoro-2-methylimidazo[1,2-a]pyridin-6-yl]-5-(piperidin-4-yl) thiophene-2-carboxamide]	100 to 1000 nM	1000 to 10000 nM	1000 to 10000 nM	100 to 1000 nM	1000 to 10000 nM
Cc1cn2cc(NC(=O)c3sc(C4CCNCC4)cc3F)c(C)cc2n1 [Compound 178, N-[2,7-dimethylimidazo[1,2-a]pyridin-6-yl]-3-fluoro-5-(piperidin-4-yl)thiophene-2-carboxamide]	100 to 1000 nM	1000 to 10000 nM	> 10 nM	1000 to 10000 nM	1000 to 10000 nM
Cc1cn2cc(NC(=O)c3sc(C4CCNCC4)cc3F)ncc2n1 [Compound 179, 3-fluoro-N-[2-methylimidazo[1,2-a]pyrazin-6-yl]-5-(piperidin-4-yl)thiophene-2-carboxamide]	1000 to 10000 nM	1000 to 10000 nM	1000 to 10000 nM	100 to 1000 nM	100 to 1000 nM
Cc1cn2cc(NC(=O)c3sc(C4CCNCC4)cc3F)cc(C)c2n1 [Compound 180, N-[2,8-dimethylimidazo[1,2-a]pyridin-6-yl]-3-fluoro-5-(piperidin-4-yl)thiophene-2-carboxamide]	< 100 nM	1000 to 10000 nM	1000 to 10000 nM	100 to 1000 nM	100 to 1000 nM
Cc1cn2cc(NC(=O)c3sc(C4CCNCC4)cc3F)cc(Cl)c2n1 [Compound 181, N-[8-chloro-2-methylimidazo[1,2-a]pyridin-6-yl]-3-fluoro-5-(piperidin-4-yl)thiophene-2-carboxamide]	< 100 nM	100 to 1000 nM	1000 to 10000 nM	100 to 1000 nM	100 to 1000 nM
Cn1cc2ccc(NC(=O)c3sc(C4CCNCC4)cc3F)cc2n1 [Compound 182, 3-fluoro-N-(2-methylindazol-6-yl)-5-(piperidin-4-yl)thiophene-2-carboxamide]	> 10 nM	> 10000 nM	> 10 nM	> 10 nM	> 10000 nM
Cn1cc2c(F)cc(NC(=O)c3sc(C4CCNCC4)cc3F)cc2n1 [Compound 183, 3-fluoro-N-(4-fluoro-2-methylindazol-6-yl)-5-(piperidin-4-yl)thiophene-2-carboxamide]	> 10 nM	> 10000 nM	> 10 nM	> 10 nM	> 10000 nM
Cc1nc2c(F)cc(NC(=O)c3sc(C4CCNCC4)cc3F)cc2o1 [Compound 184, 3-fluoro-N-(4-fluoro-2-methyl-1,3-benzoxazol-6-yl)-5-(piperidin-4-yl)thiophene-2-carboxamide]	< 100 nM	100 to 1000 nM	100 to 1000 nM	100 to 1000 nM	100 to 1000 nM
Cc1nc2c(F)cc(NC(=O)c3sc(C4CCNCC4)cc3F)cc2s1 [Compound 185, 3-fluoro-N-(4-fluoro-2-methyl-1,3-benzothiazol-6-yl)-5-(piperidin-4-yl)-thiophene-2-carboxamide]	< 100 nM	1000 to 10000 nM	1000 to 10000 nM	100 to 1000 nM	100 to 1000 nM
Cc1cn2cc(NC(=O)c3cc(Cl)c(N4CCNC(C)C4)s3)cc(F)c2n1 (stereo not shown) [Compound 187]	> 10 nM	> 10000 nM	> 10 nM	> 10 nM	> 10000 nM
